The source of these data is article PMC6155426, “Metabolite Profiling of Eastern Teaberry (Gaultheria procumbens L.) Lipophilic Leaf Extracts with Hyaluronidase and Lipoxygenase Inhibitory Activity” (Molecules : A Journal of Synthetic Chemistry and Natural …, 2017).

The target in assay [1] is T1, bovine testis hyaluronidase (Bos taurus, UniProt Q2YDK3).
T1 construct: purchased Sigma-Aldrich; host or cells: bovine testis (tissue-derived preparation)
T1 sequence (Q2YDK3 36-553): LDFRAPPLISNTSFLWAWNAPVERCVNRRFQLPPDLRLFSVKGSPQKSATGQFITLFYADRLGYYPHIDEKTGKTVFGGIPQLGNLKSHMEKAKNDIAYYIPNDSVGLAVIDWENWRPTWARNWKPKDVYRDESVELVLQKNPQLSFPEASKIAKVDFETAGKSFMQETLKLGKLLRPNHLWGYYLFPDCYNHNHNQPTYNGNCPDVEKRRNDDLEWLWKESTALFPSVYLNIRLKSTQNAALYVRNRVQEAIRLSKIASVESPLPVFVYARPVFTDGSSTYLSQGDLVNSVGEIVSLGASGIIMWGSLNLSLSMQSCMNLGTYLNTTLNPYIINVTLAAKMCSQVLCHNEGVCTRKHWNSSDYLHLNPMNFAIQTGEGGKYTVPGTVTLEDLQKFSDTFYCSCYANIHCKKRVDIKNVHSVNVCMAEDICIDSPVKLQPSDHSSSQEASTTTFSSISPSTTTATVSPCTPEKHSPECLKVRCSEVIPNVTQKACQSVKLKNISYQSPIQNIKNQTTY
The assay is described as follows: Hyaluronidase inhibition test (turbidimetric, 96-well). The following applies: for IC50: read-out: HYAL inhibitory activity (IC50) (converted). It is filed as biochemical. The method, then:
(§1) Heparin sodium salt was purchased from WZF Polfa (Warsaw, Poland). HPLC grade solvents (methanol and orthophosphoric acid) were from Avantor Performance Materials (Avantor PM, Gliwice, Poland). All other chemicals and solvents were of analytical grade and supplied by Avantor PM. In all analyses redistilled water was used. Enzymatic tests were done using 96-well plates and monitored using a Synergy 4 microplate reader (BioTek, Winooski, VT, USA). Column chromatography (CC) was performed on silica gel 60 G (0.2–0.5 mm, Macherey-Nagel, Düren, Germany). Analytical TLC was carried out on silica gel 60 G precoated plates (Merck, Warsaw, Poland) using horizontal DC chambers (Chromdes, Lublin, Poland). Flash chromatography was carried out on an Interchim puriFlash^TM 430evo chromatograph (Interchim Inc., San Pedro, CA, USA) equipped with a UV-Vis detector scanning in the wavelength range of 200–600 nm, a fraction collector, and Interchim puriFlash Silica HC (50 µm, 72 mm × 15 mm, 4 g) preparative columns. The flow rate was 7 mL/min. The mobile phase consisted of petroleum ether (A), chloroform (B), and methanol (C). A linear gradient system was used for elution (A:B:C): 0–9 min, 75:25:0 (v/v/v); 9–10 min, 49:49:2; 10–15 min, 45:45:10. Before injection, samples were dissolved in chloroform. Melting points (uncorrected) were determined on a Boetius apparatus (Carl Zeiss, Jena, Germany). UV-Vis spectra, before and after adding ionization and complexation reagents, were recorded at 25 °C on a UV-1601 Spectrophotometer (Rayleigh, Beijing, China) in methanol, according to Mabry et al.. ESI-MS spectra were measured on a UHPLC-3000 RS chromatograph (Dionex, Dreieich, Germany) equipped with a dual low-pressure gradient pump, an autosampler, a diode array detector, and an AmaZon SL ion trap mass spectrometer with an ESI interface (Bruker Daltonik, Bremen, Germany). IR spectra were recorded in KBr on a Bruker Alpha FT-IR spectrometer (Bruker Daltonik). Optical rotation ( [α]D20 ) was measured in chloroform on a PolAAr 3001 polarimeter (Optical Activity, Ramsey, UK). ^1H-NMR, ^13C-NMR, ^1H-^1H COSY, HMQC, and HMBC spectra were recorded at 25 °C on a Bruker Daltonik III 600 MHz spectrometer in CDCl3 and with TMS as the internal standard.
Inhibitory activity of the tested analytes (extracts and individual compounds) was determined by turbidimetric method adapted for 96-well microtiter plates as described previously. The protocol was started by adding 20 μL of the tested analyte solution in monosodium phosphate buffer (pH = 7.0) to 40 μL of hyaluronidase solution (22.55 U/mL) in monosodium phosphate buffer (pH = 7.0) and the mixture was incubated at 37.0 ± 0.1 °C in the dark for 10 min. After this time 40 μL of hyaluronic acid solution (0.03%, w/v) in monosodium phosphate buffer (pH = 5.35) was added and the mixture was further incubated at 37.0 ± 0.1 °C in the dark for 45 min. Finally 300 μL of bovine serum albumin solution (0.1%, w/v) in sodium acetate buffer (pH = 3.75) was added to the mixture and incubated in room temperature for 10 min. Changes in turbidity were measured at 600 nm. […] At each level three independent experiments were carried out in duplicate. Heparin was used as a positive control. Activity of the tested analytes was calculated as inhibition percentage (% Inhibition) of hyaluronidase according to the Equation (1): (1) % Inhibition=100×(1−(AHA−AAN/AHA−AHYAL)), where AHA—absorbance of solution without the enzyme, AHYAL—absorbance of solution without the tested analyte (negative control), AAN—absorbance of solution with the tested analyte.

Assay [2] concerns the target T2, lipoxygenase from soybean (Glycine max, UniProt P08170).
T2 construct: purchased Sigma-Aldrich; host or cells: soybean (plant-derived preparation)
T2 sequence (P08170 1-839): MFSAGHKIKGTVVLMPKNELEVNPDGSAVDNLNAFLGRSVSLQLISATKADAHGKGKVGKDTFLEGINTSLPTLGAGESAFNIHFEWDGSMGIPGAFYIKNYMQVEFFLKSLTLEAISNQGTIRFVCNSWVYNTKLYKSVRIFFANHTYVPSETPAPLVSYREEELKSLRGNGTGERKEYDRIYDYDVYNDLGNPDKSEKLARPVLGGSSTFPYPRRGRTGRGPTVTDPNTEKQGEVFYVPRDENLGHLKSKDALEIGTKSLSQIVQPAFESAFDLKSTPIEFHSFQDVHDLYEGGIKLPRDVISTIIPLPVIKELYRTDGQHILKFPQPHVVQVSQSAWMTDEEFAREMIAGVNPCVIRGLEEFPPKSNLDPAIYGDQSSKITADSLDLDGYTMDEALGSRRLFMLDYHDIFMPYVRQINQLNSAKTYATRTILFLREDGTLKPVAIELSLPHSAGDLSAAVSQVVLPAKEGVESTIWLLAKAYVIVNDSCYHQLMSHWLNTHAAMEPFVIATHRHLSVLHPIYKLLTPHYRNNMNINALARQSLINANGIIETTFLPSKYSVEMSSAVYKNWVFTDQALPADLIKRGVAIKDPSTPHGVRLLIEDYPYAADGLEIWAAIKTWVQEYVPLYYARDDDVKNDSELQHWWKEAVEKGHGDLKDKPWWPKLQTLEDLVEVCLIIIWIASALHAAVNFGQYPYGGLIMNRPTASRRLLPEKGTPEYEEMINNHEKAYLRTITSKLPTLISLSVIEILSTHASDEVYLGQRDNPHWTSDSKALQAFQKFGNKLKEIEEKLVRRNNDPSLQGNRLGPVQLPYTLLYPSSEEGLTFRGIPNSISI
The assay is described as follows: Lipoxygenase inhibition test (spectrophotometric, 96-well). The assay is classed as biochemical. The method, then:
as §1
Inhibitory activity of the tested analytes (extracts and individual compounds) was determined by a spectrophotometric method adjusted to a 96-well microtiter plates according to Granica et al.. The protocol was started by adding 50 μL of the tested analyte solution in sodium borate buffer (pH = 9.0), then 50 μL of linoleic acid solution (134 μM) was added, followed by 50 μL of lipoxygenase solution (167 U/mL) in sodium borate buffer (pH = 9.0). The reaction mixture was vigorously shaken and changes in absorbance were measured at 234 nm over a period of 15 min with 1 min intervals. […] At each level three independent experiments were carried out in duplicate. Indomethacin was used as a positive control. Activity of the tested analytes was calculated as inhibition percentage (% Inhibition) of lipoxygenase according to Equation (2): (2) % Inhibition=100×(1−(AAN−ALA/ALOX)), where AAN—absorbance of solution with the tested analyte, ALA—absorbance of solution without the enzyme, ALOX—absorbance of solution without the tested analyte (negative control). The absorbance value in the 10th minute of the reaction were used for the calculation.

Where [3] appears, read: tested 100−1000 μg/mL, hyaluronic acid substrate, 37 °C, mean ± SD (n = 3 × 2).
Setting [4] is: tested 50−1000 μg/mL, linoleic acid substrate, pH 9.0, mean ± SD (n = 3 × 2), read-out: LOX inhibitory activity (IC50) (converted).

Like-named read-outs stand apart in the source and are kept apart here.

A word on the IC50: it is the concentration needed to halve the response being measured. Regarding `COC(=O)c1ccccc1O` [SM, methyl salicylate], the half-inhibitory concentration (IC50) in assay [1] (setting [3]) was 5220 µM; in assay [2] (setting [4]) it was 2570 µM.

`COC(=O)c1ccccc1` [BM, methyl benzoate]: the IC50 in assay [1] (setting [3]) is 5700 µM; in assay [2], 2750 µM.

In the case of `COc1cc2oc(-c3ccc(O)cc3)cc(=O)c2c(O)c1C` [DS, 4′,5-dihydroxy-7-methoxy-6-methylflavone], the IC50 is 1570 µM in assay [1] (setting [3]) and 1120 µM in assay [2] (setting [4]).

For the compound `COc1cc2oc(-c3ccc(O)cc3)c(OC)c(=O)c2c(O)c1C` [DL, 4′,5-dihydroxy-3,7-dimethoxy-6-methylflavone], the half-maximal inhibitory concentration (IC50) was 1320 µM in assay [1] (setting [3]) and 920 µM in assay [2] (setting [4]).

In the case of heparin [HP, reference compound], in assay [1] (setting [3]), the “HYAL inhibitory activity (IC50)” value is 366.24 ± 14.72 µg/mL.

`CCCCCCCCCCCCCCCCCCCCCC` [DOC, docosane]: the IC50 is above 3220 µM in assay [1] (setting [3]) and 2640 µM in assay [2] (setting [4]). For the same compound, the “inhibitory activity towards hyaluronidase in the tested concentration range” value in assay [1] (tested concentration range 100−1000 μg/mL) is on record as “no inhibitory activity”.

Take `CC[C@H](CC[C@@H](C)[C@H]1CC[C@H]2[C@@H]3CC=C4C[C@@H](O)CC[C@]4(C)[C@H]3CC[C@]12C)C(C)C` [β-SIT, β-sitosterol]: the IC50 in assay [1] (setting [3]) is 1650 µM; in assay [2] (setting [4]), 1910 µM.

With `COc1ccc2c(c1)c(CC(=O)O)c(C)n2C(=O)c1ccc(Cl)cc1` [IND, indomethacin, reference compound], the half-maximal inhibitory concentration (IC50) in assay [2] (setting [4]) is 259 µM.

For the compound `CC1(C)CC[C@]2(C(=O)O)CC[C@]3(C)C(=CC[C@@H]4[C@@]5(C)CC[C@H](O)C(C)(C)[C@@H]5CC[C@]43C)[C@@H]2C1` [OA, oleanolic acid], in assay [2], the half-maximal inhibitory concentration (IC50) was 2020 µM.

`C[C@H]1[C@H](C)CC[C@]2(C(=O)O)CC[C@]3(C)C(=CC[C@@H]4[C@@]5(C)CC[C@H](O)C(C)(C)[C@@H]5CC[C@]43C)[C@H]12` [UA, ursolic acid]: the IC50 in assay [1] (setting [3]) was 832 µM; in assay [2], 1610 µM.

Consider `CC1=CC(=O)CC(C)(C)C1(O)C=CC(C)O` [VO, (6S,9R)-6-hydroxy-3-oxo-α-ionol], for which the 50% inhibitory concentration (IC50) in assay [1] (setting [3]) was 1590 µM; in assay [2] (setting [4]), 540 µM.
